The results in this text go back to patent US20250129334A1, “LINEAGE SPECIFICATION DURING STEM CELL TRANSITION” (Amniotics AB, priority 2021, published 2025).

The test system of assay [1] is HE cells. Description: Single HE cell clone assay on OP9-DL1 stroma. The assay is classed as cell-based, human. Particulars: day 14; total of 552 single cells per condition. The procedure:
Sorted HE (40,000), EHT (30,000) and HSC-like (5-20,000) cells were plated onto Matrigel (16 μg/cm2, Corning)-coated 96-well flat bottom plates in HE medium with 1% penicillin-streptomycin and kept in a humidified incubator at 37° C., 5% C02, 4% 02 overnight. The following day (day 0), wells were washed twice with PBS and fresh HE medium was added, together with 2-DG (1 mM), UK5099 (10 μM), DCA (3 mM or 10 mM), TSA (60 nM), TCP (300 nM), ACSS2i (5 μM), C646 (10 μM), CP-640186 (5 μM) or Atorvastatin (0.5 μM), where indicated. Media was changed and drugs were added every 2 days and cells were kept in a humidified incubator at 37° C., 5% CO2, 20% O2 for 6-7 days. Pictures were taken using an Olympus IX70 microscope equipped with a CellSens DP72 camera and CellSens Standard 1.6 software (Olympus). For single cell subcultures, single HE cells were directly sorted with a BD FACSAriaIII onto OP9-DL1 stroma in flat-bottom 96-well plates with 120 μl OP9 medium (OptiMEM medium with Glutamax (Invitrogen) with 10% FCS, 1% penicillin-streptomycin solution (Thermo Fisher Scientific) and 1% 2-mercaptoethanol (Invitrogen)) with SCF, IL-6, IL-11, IGF1 and EPO, and with or without 10 μM UK, or 3 mM or 10 mM DCA. […] At day 14, the wells were collected and scored for GPA+ clones by flow cytometry, using a BD LSRII.

In assay [2] the test system is HE cells. Description: Colony forming unit assay of subcultured HE cells. The assay is classed as cell-based, human. The procedure: Subcultured HE cells were treated with StemPro Accutase Cell Dissociation Reagent for 2 minutes at 37° C. and dissociated cells were resuspended in 3 ml Methocult H4230 (STEMCELL Technologies, France) (prepared according to manufacturer's instructions, with 20 mL Iscove's Modified Dulbecco's Medium containing 2.5 μg hSCF, 5 μg GM-CSF, 2.5 μg IL-3 and 500 U EPO). Each mixture was divided onto 2 wells of a non-tissue culture treated 6-well plate. Following a 12-day incubation in a humidified incubator at 37° C., 5% CO2, 20% O2, colonies were morphologically distinguished and scored. For globin analysis, colonies in Methocult wells were harvested with PBS, washed thoroughly and frozen in RLT buffer with β-mercaptoethanol. Following RNA extraction and RT (Qiagen), gene expression was assessed with taqman probes by q-PCR. The taqman probes used for this assay are HBA1/2 (Hs00361191_g1), HBE1 (Hs00362216_m1), HBG2/1 (Hs00361131_g1) and KLF1 (Hs00610592_m1).

Take `O=C(O)C(Cl)Cl` [DCA, dichloroacetate]: in the assay on HE cells [1], the “GPA+ clones” value worked out at 7 clones. Besides, the “ratio of CFU-E colonies to the sum of CFU-G, CFU-GM and CFU-M colonies, lower than control” value in the assay on HE cells [2] (6 days subculture, DCA 3 mM) is listed as “more than 3 fold”.

As for `N#CC(=Cc1cn(-c2ccccc2)c2ccccc12)C(=O)O` [UK5099, 2-Cyano-3-(1-phenyl-1H-indol-3-yl)-2-propenoic acid], the “GPA+ clones” value with HE cells [1] was found to be 12 clones. The “granulocyte and macrophage colonies (CFU-G, GM and M)” value in the assay with HE cells [2] (3 or 6 days of UK5099) was “decreased”. Moreover, the “ratio of CFU-E colonies to the sum of CFU-G, CFU-GM and CFU-M colonies, higher than control” value in the assay with HE cells [2] (6 days subculture, UK5099 10 μM) stood at 20 fold. Further, the “erythroid colony (CFU-E) formation” value with HE cells [2] (UK5099 3 or 6 days, DCA 6-day treatment, vs untreated) is “significantly increased”.
